17 compounds from patent publication US8642799B2, “Cysteine protease inhibitors for the treatment of parasitic diseases” (Merck Canada Inc., priority 2007, dated 2014) can be followed below.

In the assay the target is cruzipain (Trypanosoma cruzi, UniProt P25779). The assay is described as follows: biochemical. The settings on record: 50 pM cruzipain, pH 5.5, 15 minutes preincubation, 2 μM Z-Phe-Arg-AMC substrate. Here is the method: The assay solutions were mixed and incubated for 15 minutes at room temperature prior to the addition of 2 μM of Z-Phe-Arg-AMC substrate. […] Percent of inhibition were calculated by fitting experimental values to standard mathematical model for dose response curve.
Chain of cruzipain (P25779 123-467): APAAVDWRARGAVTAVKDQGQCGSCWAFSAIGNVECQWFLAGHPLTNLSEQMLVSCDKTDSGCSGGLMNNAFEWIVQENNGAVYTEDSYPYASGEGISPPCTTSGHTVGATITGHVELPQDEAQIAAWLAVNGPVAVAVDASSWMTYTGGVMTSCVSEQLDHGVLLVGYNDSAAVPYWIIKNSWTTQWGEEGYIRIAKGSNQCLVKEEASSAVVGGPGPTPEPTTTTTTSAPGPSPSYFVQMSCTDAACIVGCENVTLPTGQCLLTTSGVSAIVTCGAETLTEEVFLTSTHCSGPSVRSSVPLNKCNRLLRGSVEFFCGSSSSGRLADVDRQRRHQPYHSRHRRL
As a reminder, the IC50 is the concentration that inhibits the measured activity by half. A low value points to higher potency. In the case of `CC(C)(F)C[C@H](N[C@@H](c1ccc(-c2ccc(C3(C(=O)NCC(N)=O)CC3)cc2)cc1)C(F)(F)F)C(=O)N[C@H](C#N)Cc1ccccc1` [Example 55, 1-[4′-((S)-1-{(S)-1-[((S)-Benzyl-cyano-methyl)-carbamoyl]-3-fluoro-3-methyl-butylamino}-2,2,2-trifluoro-ethyl)-biphenyl-4-yl]-cyclopropanecarboxylic acid carbamoylmethyl-amide], the IC50 was found to be 1.9 nM. The value for `CC(C)(F)C[C@H](N[C@@H](c1ccc(-c2ccc(-c3ccc(S(C)(=O)=O)cc3)cc2)cc1)C(F)(F)F)C(=O)N[C@H](C#N)Cc1ccccc1` [Example 24, (S)-4-Fluoro-4-methyl-2-[(S)-2,2,2-trifluoro-1-(4-methanesulfonyl-[1,1′;4′,1″]terphenyl-4″-yl)-ethylamino]-pentanoic acid ((S)-benzyl-cyano-methyl)-amide] was 16 nM.

In the case of `CC(C)(F)C[C@H](N[C@@H](c1ccc(-c2ccc(S(C)(=O)=O)cc2)cc1)C(F)(F)F)C(=O)N[C@H](C#N)Cc1ccc(Cl)cc1Cl` [Example 18, (S)-4-Fluoro-4-methyl-2-[(S)-2,2,2-trifluoro-1-(4′-methanesulfonyl-biphenyl-4-yl)-ethylamino]-pentanoic acid [(S)-1-cyano-2-(2,4-dichloro-phenyl)-ethyl]-amide], the IC50 came to 1.3 nM. As for `CC(C)[C@H](N[C@@H](c1ccc(-c2ccc(C3(C(N)=O)CC3)cc2)cc1)C(F)(F)F)C(=O)N[C@H](C#N)Cc1ccccc1` [Example 48, 1-[4′-((S)-1-{(S)-1-[((S)-Benzyl-cyano-methyl)-carbamoyl]-2-methyl-propylamino}-2,2,2-trifluoro-ethyl)-biphenyl-4-yl]-cyclopropanecarboxylic acid amide], the figure is 0.7 nM; as for `CC(C)(F)C[C@H](N[C@@H](c1ccc(-c2ccc(-c3ccncc3)cc2)cc1)C(F)(F)F)C(=O)N[C@H](C#N)Cc1ccc(C#N)cc1F` [Example 39, (S)-4-Fluoro-4-methyl-2-[(S)-2,2,2-trifluoro-1-(4′-pyridin-4-yl-biphenyl-4-yl)-ethylamino]-pentanoic acid [(S)-1-cyano-2-(4-cyano-2-fluoro-phenyl)-ethyl]-amide], 0.6 nM; as for `CC(C)[C@H](N[C@@H](c1ccc(-c2ccc([C@@H](O)C(F)F)cc2)cc1)C(F)(F)F)C(=O)N[C@H](C#N)Cc1ccc(C(F)(F)F)cc1F` [Example 61, (S)-N-[(S)-Cyano-(2-fluoro-4-trifluoromethyl-benzyl)-methyl]-2-{(S)-1-[4′-((R)-2,2-difluoro-1-hydroxy-ethyl)-biphenyl-4-yl]-2,2,2-trifluoro-ethylamino}-3-methyl-butyramide], 1.5 nM.

As for `CC(C)(F)C[C@H](N[C@@H](c1ccc(-c2ccc([C@@H](O)C(F)F)cc2)cc1)C(F)(F)F)C(=O)NC(C#N)Cc1ccc(C(F)(F)F)cc1F` (stereo partly drawn) [Example 37, (S)-2-{(S)-1-[4′-((R)-2,2-Difluoro-1-hydroxy-ethyl)-biphenyl-4-yl]-2,2,2-trifluoro-ethylamino}-4-fluoro-4-methyl-pentanoic acid [cyano-(2-fluoro-4-trifluoromethyl-benzyl)-methyl]-amide], the IC50 was determined as 9.3 nM. The value for `CC(C)C[C@H](N[C@@H](c1ccc(Br)cc1)C(F)(F)F)C(=O)N[C@H](C#N)Cc1ccc(C#N)cc1` [Example 21, (S)-2-[(S)-1-(4-Bromo-phenyl)-2,2,2-trifluoro-ethylamino]-4-methyl-pentanoic acid [(S)-1-cyano-2-(4-cyano-phenyl)-ethyl]-amide] was 0.94 nM. The value for `CC(C)(F)C[C@H](N[C@@H](c1ccc(-c2ccc(S(C)(=O)=O)cc2)cc1)C(F)(F)F)C(=O)N[C@H](C#N)Cc1c(F)cccc1F` [Example 76, (S)-4-Fluoro-4-methyl-2-[(S)-2,2,2-trifluoro-1-(4′-methanesulfonyl-biphenyl-4-yl)-ethylamino]-pentanoic acid [(S)-cyano-(2,6-difluoro-benzyl)-methyl]-amide] was 7.1 nM; that for `CC(C)(F)C[C@H](N[C@@H](c1ccc(-c2ccc(C3(C(=O)N4CCOCC4)CC3)cc2)cc1)C(F)(F)F)C(=O)N[C@H](C#N)Cc1ccc(C#N)cc1F` [Example 43, (S)-4-Fluoro-4-methyl-2-((S)-2,2,2-trifluoro-1-{4′-[1-(morpholine-4-carbonyl)-cyclopropyl]-biphenyl-4-yl}-ethylamino)-pentanoic acid [(S)-1-cyano-2-(4-cyano-2-fluoro-phenyl)-ethyl]-amide] was 0.35 nM; that for `CC(C)(O)Cc1ccc(-c2ccc([C@H](N[C@@H](CC(C)(C)F)C(=O)N[C@H](C#N)Cc3ccc(C#N)cc3F)C(F)(F)F)cc2)cc1` [Example 42, (S)-4-Fluoro-4-methyl-2-{(S)-2,2,2-trifluoro-1-[4′-(2-hydroxy-2-methyl-propyl)-biphenyl-4-yl]-ethylamino}-pentanoic acid [(S)-1-cyano-2-(4-cyano-2-fluoro-phenyl)-ethyl]-amide] was 0.9 nM. As for `CC(C)[C@H](N[C@@H](c1ccc(-c2ccncc2)cc1)C(F)(F)F)C(=O)N[C@H](C#N)Cc1ccccc1` [Example 49, (S)-N-((S)-Benzyl-cyano-methyl)-3-methyl-2-[(S)-2,2,2-trifluoro-1-(4-pyridin-4-yl-phenyl)-ethylamino]-butyramide], the figure is 5.6 nM; as for `CC(C)(F)C[C@H](N[C@@H](c1ccc(-c2ccc(S(C)(=O)=O)cc2)cc1)C(F)(F)F)C(=O)N[C@H](C#N)Cc1ccc(C#N)cc1` [Example 3, (S)-4-Fluoro-4-methyl-2-[(S)-2,2,2-trifluoro-1-(4′-methanesulfonyl-biphenyl-4-yl)-ethylamino]-pentanoic acid [(S)-1-cyano-2-(4-cyano-phenyl)-ethyl]-amide], 1.5 nM. `CC(C)(F)C[C@H](N[C@@H](c1ccc(-c2ccc(S(C)(=O)=O)cc2)cc1)C(F)(F)F)C(=O)N[C@H](C#N)Cc1c(F)cc(Br)cc1F` [Example 66, (S)-4-Fluoro-4-methyl-2-[(S)-2,2,2-trifluoro-1-(4′-methanesulfonyl-biphenyl-4-yl)-ethylamino]-pentanoic acid [(S)-(4-bromo-2,6-difluorobenzyl)-cyano-methyl]-amide] gave an IC50 of 1.6 nM. As for `CC(C)(F)C[C@H](N[C@@H](c1ccc(-c2ccc(C3(C#N)CC3)cc2)cc1)C(F)(F)F)C(=O)N[C@H](C#N)Cc1ccccc1` [Example 27, (S)-2-{(S)-1-[4′-(1-Cyano-cyclopropyl)-biphenyl-4-yl]-2,2,2-trifluoro-ethylamino}-4-fluoro-4-methyl-pentanoic acid ((S)-1-cyano-2-phenyl-ethyl)-amide], the figure is 10.4 nM; as for `CC(C)[C@H](N[C@@H](c1ccc(Br)cc1)C(F)(F)F)C(=O)N[C@H](C#N)Cc1ccccc1` [Example 40, (S)-2-[(S)-1-(4-Bromo-phenyl)-2,2,2-trifluoro-ethylamino]-N-((S)-1-cyano-2-phenyl-ethyl)-3-methyl-butyramide], 10.5 nM; as for `CC(C)(F)C[C@H](N[C@@H](c1ccc(Br)cc1)C(F)(F)F)C(=O)N[C@H](C#N)Cc1ccc(C#N)cc1F` [Example 44, (S)-2-[(S)-1-(4-Bromo-phenyl)-2,2,2-trifluoro-ethylamino]-4-fluoro-4-methyl-pentanoic acid [(S)-1-cyano-2-(4-cyano-2-fluoro-phenyl)-ethyl]-amide], 9.4 nM.
